Experimental data taken from ChEMBL document CHEMBL5523739, “NN1213 - A Potent, Long-Acting, and Selective Analog of Human Amylin” (J Med Chem, 2024).
≈ marks a conversion by molar mass, not a printed value. Calls of active or inactive are those of the source. The rule behind the calls is not given here.

Experiments:
Calcitonin receptor [1] = molecular target: T1, Calcitonin receptor (Homo sapiens, UniProt P30988); assay: Agonist activity at human CTR expressed in Baby hamster kidney cells incubated for 3 hrs followed by medium replacement without compound measured after 30 mins by luciferase reporter assay; format: functional, cell-based, Baby hamster kidney cell
T1 sequence (P30988 whole entry): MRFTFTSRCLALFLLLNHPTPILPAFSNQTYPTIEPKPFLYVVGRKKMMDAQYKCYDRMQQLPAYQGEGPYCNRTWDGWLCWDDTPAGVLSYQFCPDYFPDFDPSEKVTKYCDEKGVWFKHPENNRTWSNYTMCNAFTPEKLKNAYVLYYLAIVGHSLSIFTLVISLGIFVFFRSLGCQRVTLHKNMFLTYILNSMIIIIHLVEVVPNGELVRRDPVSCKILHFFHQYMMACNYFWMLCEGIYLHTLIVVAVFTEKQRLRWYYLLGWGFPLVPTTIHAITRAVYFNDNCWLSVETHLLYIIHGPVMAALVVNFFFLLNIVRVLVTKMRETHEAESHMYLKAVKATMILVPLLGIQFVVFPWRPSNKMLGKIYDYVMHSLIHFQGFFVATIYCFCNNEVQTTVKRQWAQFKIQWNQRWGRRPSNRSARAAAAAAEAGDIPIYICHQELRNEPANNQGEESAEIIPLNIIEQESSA

[2] = molecular target: T2, Amylin receptor AMY3; CALCR/RAMP3 (Rattus norvegicus, UniProt P32214+Q9JJ73); assay: Agonist activity at rat AMY3R complex of CTR/RAMP3 expressed in Baby hamster kidney cells incubated for 3 hrs by cAMP assay; format: functional, cell-based, Baby hamster kidney cell
T2 sequence (P32214 whole entry): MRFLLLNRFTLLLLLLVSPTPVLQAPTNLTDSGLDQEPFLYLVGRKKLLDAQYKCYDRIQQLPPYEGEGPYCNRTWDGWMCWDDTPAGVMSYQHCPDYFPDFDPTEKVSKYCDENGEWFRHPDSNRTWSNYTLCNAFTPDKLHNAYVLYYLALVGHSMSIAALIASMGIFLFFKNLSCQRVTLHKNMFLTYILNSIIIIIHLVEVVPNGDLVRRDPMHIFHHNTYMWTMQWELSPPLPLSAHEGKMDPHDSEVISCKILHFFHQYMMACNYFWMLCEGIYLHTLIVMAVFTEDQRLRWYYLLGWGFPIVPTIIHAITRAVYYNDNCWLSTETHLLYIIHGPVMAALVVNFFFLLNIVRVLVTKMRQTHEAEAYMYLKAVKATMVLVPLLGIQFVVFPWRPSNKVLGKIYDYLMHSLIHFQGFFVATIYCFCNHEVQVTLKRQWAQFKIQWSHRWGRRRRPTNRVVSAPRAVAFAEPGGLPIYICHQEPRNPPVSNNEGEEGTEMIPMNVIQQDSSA
T2 sequence (Q9JJ73 whole entry): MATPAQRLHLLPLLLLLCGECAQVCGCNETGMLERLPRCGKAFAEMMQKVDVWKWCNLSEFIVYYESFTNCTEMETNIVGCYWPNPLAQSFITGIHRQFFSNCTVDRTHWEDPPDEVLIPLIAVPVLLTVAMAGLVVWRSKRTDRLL

Calcitonin receptor [3] = molecular target: T3, Calcitonin receptor (Rattus norvegicus, UniProt P32214); assay: Agonist activity at rat CTR expressed in Baby hamster kidney cells incubated for 3 hrs by cAMP assay; format: functional, cell-based, Baby hamster kidney cell
T3 sequence (P32214 whole entry): T2 sequence (P32214 whole entry)

Calcitonin receptor [4] = molecular target: T1, Calcitonin receptor; assay: Displacement of 125I-Calcitonin from human CTR expressed in Baby hamster kidney cell membrane incubated for 120 mins by SPA method; format: cell membranes
[5] = molecular target: T2, Amylin receptor AMY3; CALCR/RAMP3; assay: Displacement of 125I-rat amylin from rat AMY3R complex of CTR/RAMP3 expressed in Baby hamster kidney cell membrane incubated for 120 mins by SPA method; format: cell membranes
[6] = Solubility of compound at pH 3 incubated overnight by UPLC analysis; format: physicochemical; settings: buffer
[7] = Solubility of compound at pH 5 incubated overnight by UPLC analysis; format: physicochemical; settings: buffer
[8] = Solubility of compound at pH 7 incubated overnight by UPLC analysis; format: physicochemical; settings: buffer
[9] = Solubility of compound at pH 7.5 incubated overnight by UPLC analysis; format: physicochemical; settings: buffer
[10] = Stability against amyloid fibril formation at pH 7.5 assessed as lag time at 1 uM measured after 45 hrs by ThT assay; format: physicochemical; settings: pH 7.5, 45 h
Rattus norvegicus [11] = assay: Appetite suppressing activity in rat assessed as reduction in food intake at 30 nmol/kg, sc measured upto 24 hrs relative to control; format: functional; parameters: scale not given: the % may be the effect or the level left
Calcitonin receptor [12] = molecular target: T1, Calcitonin receptor; assay: Agonist activity at human CTR transduced in human HeLa cells by cAMP assay; format: functional, cell-based
[13] = molecular target: Amylin receptor AMY1, CALCR/RAMP1 (Homo sapiens, UniProt O60894+P30988); assay: Agonist activity at human AMY1R complex of CTR/RAMP1 transduced in human HeLa cells by cAMP assay; format: functional, cell-based
[14] = molecular target: Amylin receptor AMY2; CALCR/RAMP2 (Homo sapiens, UniProt O60895+P30988); assay: Agonist activity at human AMY2R complex of CTR/RAMP2 transduced in human HeLa cells by cAMP assay; format: functional, cell-based
[15] = Terminal half life in rat at 2.5 nmol/kg, sc; format: ADME; settings: in vivo, read-out: beta t1/2 (converted)
[16] = […] bioavailability in rat at 2.5 nmol/kg, sc; format: ADME, organism-based; settings: in vivo
[17] = Terminal half life in rabbit at 2 nmol/kg, iv; format: ADME, Oryctolagus cuniculus; settings: in vivo, read-out: beta t1/2 (converted)
[18] = Terminal half life in Beagle dog at 6 nmol/kg, iv; format: ADME, Canis lupus familiaris; settings: in vivo, read-out: beta t1/2 (converted)
Rattus norvegicus [19] = assay: Appetite suppressing activity in rat assessed as reduction in food intake administered subcutaneously measured for 48 hrs; format: functional, organism-based; settings: dose 3-100 nmol/kg, route sc
Rattus norvegicus [20] = assay: Appetite suppressing activity in rat assessed as reduction in food intake at 3 nmol/kg, sc measured after 48 hrs relative to control; format: functional; parameters: scale not given: the % may be the effect or the level left
Rattus norvegicus [21] = assay: Appetite suppressing activity in rat assessed as reduction in food intake at 100 nmol/kg, sc measured for 48 hrs relative to control; format: functional; parameters: scale not given: the % may be the effect or the level left
Canis familiaris [22] = assay: Appetite suppressing activity in dog assessed as reduction in food intake at 3 nmol/kg, sc measured for 48 hrs; format: functional, organism-based; settings: Canis lupus familiaris
Canis familiaris [23] = assay: Appetite suppressing activity in dog assessed as reduction in food intake at 30 nmol/kg, sc measured upto 7 days; format: functional, organism-based; settings: Canis lupus familiaris, time <= 7.0 day
[24] = Toxicity in dog assessed as sign of discomfort at 3 to 300 nmol/kg, sc; parameters: species or system Canis lupus familiaris; settings: in vivo, dose 3-300 nmol/kg
Rattus norvegicus [25] = assay: Appetite suppressing activity in HFD-fed DIO rat model assessed as reduction in food intake at 0.7 nmol/kg, sc qd measured for 21 days relative to control; format: functional; parameters: scale not given: the % may be the effect or the level left; settings: time 21 day
Rattus norvegicus [26] = assay: Appetite suppressing activity in HFD-fed DIO rat model assessed as body weight lost at 0.7 nmol/kg, sc qd measured after 21 days; format: functional; settings: time 21 day
Rattus norvegicus [27] = assay: Appetite suppressing activity in HFD-fed DIO rat model assessed as body weight lost at 22 nmol/kg, sc qd measured after 21 days; format: functional; settings: time 21 day
Rattus norvegicus [28] = assay: Appetite suppressing activity in HFD-fed DIO rat model assessed as reduction in fat mass administered subcutaneously once daily measured after 21 days; format: functional, organism-based; settings: dose 0.7-22 nmol/kg, route sc, time 21.0 day
Rattus norvegicus [29] = assay: Effect on lean mass of HFD-fed DIO rat model at 0.7 to 22 nmol/kg, sc qd measured after 21 days; format: functional, organism-based; settings: dose 0.7-22 nmol/kg, time 21.0 day

Chain of Amylin receptor AMY1, CALCR/RAMP1 (O60894 whole entry, one chain of several): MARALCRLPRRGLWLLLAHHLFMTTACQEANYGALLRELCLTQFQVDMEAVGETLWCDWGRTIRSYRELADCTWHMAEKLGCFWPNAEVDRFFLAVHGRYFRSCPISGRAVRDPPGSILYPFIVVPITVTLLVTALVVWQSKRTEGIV
Chain of Amylin receptor AMY2; CALCR/RAMP2 (O60895 whole entry, one chain of several): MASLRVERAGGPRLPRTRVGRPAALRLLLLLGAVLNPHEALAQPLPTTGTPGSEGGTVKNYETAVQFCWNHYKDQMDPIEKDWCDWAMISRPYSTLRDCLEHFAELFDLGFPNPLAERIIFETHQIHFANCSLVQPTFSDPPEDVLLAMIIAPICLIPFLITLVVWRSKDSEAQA

Structure (SMILES): CC[C@H](C)[C@H](NC(=O)[C@H](C)NC(=O)CNC(=O)[C@H](Cc1ccccc1)NC(=O)[C@H](CC(N)=O)NC(=O)[C@@H]1CCCN1C(=O)[C@H](CO)NC(=O)[C@H](CO)NC(=O)[C@H](Cc1c[nH]cn1)NC(=O)[C@H](CCCNC(=N)N)NC(=O)[C@H](CC(C)C)NC(=O)[C@H](Cc1ccccc1)NC(=O)[C@H](CC(=O)O)NC(=O)[C@H](C)NC(=O)[C@H](CC(C)C)NC(=O)[C@H](CCCNC(=N)N)NC(=O)[C@H](CCC(N)=O)NC(=O)[C@@H](NC(=O)[C@H](C)NC(=O)[C@@H]1CSSC[C@H](NC(=O)[C@@H](N)CCCCN)C(=O)N[C@@H](CC(N)=O)C(=O)N[C@@H]([C@@H](C)O)C(=O)N[C@@H](C)C(=O)N[C@@H]([C@@H](C)O)C(=O)N1)[C@@H](C)O)C(=O)N1CCC[C@H]1C(=O)N[C@@H](CO)C(=O)N[C@@H](CO)C(=O)N[C@H](C(=O)N[C@@H](CC(N)=O)C(=O)N[C@H](C(=O)NCC(=O)N[C@@H](CO)C(=O)N[C@@H](CCCNC(=N)N)C(=O)N[C@H](C(=O)N[C@@H](Cc1ccc(O)cc1)C(N)=O)[C@@H](C)O)C(C)C)[C@@H](C)O
- EC50 (Calcitonin receptor [1]): 5.21 nM
- EC50 [2]: 0.262 nM
- EC50 (Calcitonin receptor [3]): 102 nM
- IC50 (Calcitonin receptor [4]): 42 nM
- IC50 [5]: 0.29 nM
- solubility [6]: ≥ 200 µM
- solubility [7]: ≥ 200 µM
- solubility [8]: 155 µM (≈ 615 µg/mL)
- solubility [9]: 106 µM (≈ 421 µg/mL)
- Time [10]: 42 h
- Activity (Rattus norvegicus [11]): 70%
- EC50 (Calcitonin receptor [12]): 1.74 nM
- EC50 [13]: 0.0575 nM
- EC50 [14]: 0.182 nM
- half-life [15]: ~24 h
- bioavailability [16]: ~40%
- half-life [17]: ~50 h
- half-life [18]: ~76 h
- Activity (Rattus norvegicus [19]): Dose-Dependent Effect
- Activity (Rattus norvegicus [20]): 15%
- Activity (Rattus norvegicus [21]): 70%
- Activity (Canis familiaris [22]): inactive
- Activity (Canis familiaris [23]): Active
- Activity [24]: Non-Toxic
- Activity (Rattus norvegicus [25]): 4.7%
- Activity (Rattus norvegicus [26]): 32 g
- Activity (Rattus norvegicus [27]): 69.6 g
- Activity (Rattus norvegicus [28]): Dose-Dependent Effect
- Activity (Rattus norvegicus [29]): inactive
